Laboratory results: ChEMBL document CHEMBL3046709, “Substituted aminoalcohol ester analogs of indomethacin with reduced toxic effects” (Med Chem Res, 2007)
Structures can show the parent of a compound that is named as a salt.

Tests used:
Mus musculus = assay: Analgesic activity in Mus musculus (mouse) assessed as inhibition of acetic acid-induced writhing at 15 mg/kg, po administered 1 hr prior to acetic acid challenge measured at 5 to 20 min relative to control; type: functional
Rattus norvegicus [1] = assay: Ulcerogenic activity in 36 hr fasting Rattus norvegicus Sprague-Dawley (rat) stomach assessed as ulcer index at 25 mg/kg, po measured after 4 hr; type: toxicity, organism-based; set-up: dose 25 mg/kg, route oral; conditions: in vivo
Rattus norvegicus [2] = assay: Anti-inflammatory activity in Rattus norvegicus Sprague-Dawley (rat) assessed as inhibition of carrageenan-induced paw edema at 3 mg/kg, po administered 1 hr prior to carrageenan-challenge measured after 3 hr by plethysmometric analysis relative to control; type: functional
Rattus norvegicus [3] = assay: Anticholinergic activity in po dosed overnight fasted Rattus norvegicus (rat) ileum; type: functional; conditions: read-out: pA2 (converted)
[4] = Half life in aqueous buffer at 1 mg/ml at pH 7.4 measured for 6 hr; type: ADME

SMILES | inhibition in vivo at 15 mg/kg (Mus musculus) [%] | UI (Rattus norvegicus [1]) | inhibition in vivo at 3 mg/kg (Rattus norvegicus [2]) [%] | Kb (Rattus norvegicus [3]) [µM] | half-life at 1 mg/ml [4] [h]
COc1ccc2c(c1)c(CC(=O)OCCN1CCOCC1)c(C)n2C(=O)c1ccc(Cl)cc1 | 35.5 | 0.259 | 23.1 | 6.92 | 52
COc1ccc2c(c1)c(CC(=O)O)c(C)n2C(=O)c1ccc(Cl)cc1 [INDOMETHACIN] | 42.1 | 0.547 | 45.4 |  | 
COc1ccc2c(c1)c(CC(=O)OCCN(C)C)c(C)n2C(=O)c1ccc(Cl)cc1 | 39.9 | 0.149 | 46.7 | 6.46 | 34
CCN(CC)CCOC(=O)Cc1c(C)n(C(=O)c2ccc(Cl)cc2)c2ccc(OC)cc12 | 23 | 0.317 | 34.6 | 32.4 | 39
COc1ccc2c(c1)c(CC(=O)OCCN1CCCC1)c(C)n2C(=O)c1ccc(Cl)cc1 | 37.2 | 0.341 | 37.5 | 12 | 99
CN1C2CCC1CC(OC(=O)C(CO)c1ccccc1)C2 (stereo not drawn) [ENDO-ATROPINE SULFATE] |  |  |  | 0.00631 | 
COc1ccc2c(c1)c(CC(=O)OCCN1CCCCC1)c(C)n2C(=O)c1ccc(Cl)cc1 | 35 | 0.134 | 16.6 | 9.12 | 66
